What all share (format): biochemical
The target in one test is Human LOXL2 (Homo sapiens (Human), UniProt Q9Y4K0). Put plainly: LOXL2 inhibition, peroxidase-coupled Amplex Red amine oxidase assay. Particulars: 30 min preincubation at 37° C., putrescine substrate. An excerpt: (§1) Method to Determine the Ability of Compounds of the Invention to Inhibit LOX and LOXL1-4 from Different Sources
(§2) Lysyl oxidase (LOX) is an extracellular copper dependent enzyme which oxidizes peptidyl lysine and hydroxylysine residues in collagen and lysine residues in elastin to produce peptidyl alpha-aminoadipic-delta-semialdehydes. […] There are five LOX family members; these are LOX, LOXL1, LOXL2, LOXL3 and LOXL4. LOX and LOXL family members can be acquired as recombinant active proteins from commercial sources, or extracted from animal tissues like bovine aorta, tendons, pig skin; or prepared from cell cultures. The inhibitory effects of the compounds of the present invention were tested against the given LOX-LOXL preparation using a high-throughput coupled colorimetric method (Holt A. and Palcic M., A peroxidase-coupled continuous absorbance plate-reader assay for flavin monoamine oxidases, copper-containing amine oxidases and related enzymes. Nat. Protoc. 2006; 1: 2498-2505). The assay was developed using either 384 or 96 well format. Briefly, in a standard 384 well plate assay 25 μL of a dilution of any of the isoenzymes and orthologues in 1.2 M urea, 50 mM sodium borate buffer (pH 8.2) were added into each well in the presence of 1 μM mofegiline and 0.5 mM pargyline (to inhibit SSAO and MAO-B and MAO-A, respectively). Test compounds were dissolved in DMSO and tested in a Concentration Response Curve (CRC) with 11 data points, typically in the micromolar or nanomolar range after incubation with the enzyme for 30 min at 37° C. Twenty five L of a reaction mixture containing twice the KM concentration of putrescine (Sigma Aldrich, e.g. 20 mM for LOX, or 10 mM for LOXL2 and LOXL3), 120 μM Amplex Red (Sigma Aldrich) and 1.5 U/mL horseradish peroxidase (Sigma Aldrich) prepared in 1.2 M urea, 50 mM sodium borate buffer (pH 8.2) were then added to the corresponding wells. The above volumes were doubled in the case of 96 wells plate. The fluorescence (RFU) was read every 2.5 min for 30 min at a range of temperatures from 37° to 45° C., excitation 565 nm and emission 590 (Optima; BMG labtech). The slope of the kinetics for each well was calculated using MARS data analysis software (BMG labtech) and this value was used to deduce the IC50 value (Dotmatics).

Another test addresses Bovine LOX (Bos taurus (Bovine), UniProt P33072). Put plainly: LOX inhibition, peroxidase-coupled Amplex Red amine oxidase assay. The settings on record: 30 min preincubation at 37° C., putrescine substrate.
Source text: as §1
as §2, with “Test compounds were dissolved in DMSO and tested in a Concentration Response Curve (CRC) with 11 data points, typically in the micromolar or nanomolar range after incubation with the enzyme for 30 min at 37° C.” left out

Test [1] has as its target human recombinant SSAO/VAP-1 (Homo sapiens (Human), UniProt Q16853). Put plainly: Inhibition of human recombinant SSAO/VAP-1 amine oxidase activity. Particulars: 30 min preincubation at 37° C., 600 μM benzylamine. As for the experimental part: Method to Determine the Ability of Compounds of Formula I to Inhibit Human Recombinant SSAO/VAP-1
Human recombinant SSAO/VAP-1 amine oxidase activity was determined using the coupled colorimetric method as described for monoamine oxidase, copper-containing amine oxidases and related enzymes (Holt A. and Palcic M., A peroxidase-coupled continuous absorbance plate-reader assay for flavin monoamine oxidases, copper-containing amine oxidases and related enzymes. Nat Protoc 2006; 1: 2498-2505). Briefly, a cloned cDNA template corresponding to residues 34-763 of human SSAO/VAP-1, and incorporating a mouse Ig kappa (κ) signal sequence, N-terminal flag epitope tag and tobacco etch virus (TEV) cleavage site, was assembled in a mammalian expression vector (pLO-CMV) by Geneart AG. This vector containing human SSAO/VAP-1 residues was transfected into CHO-K1 glycosylation mutant cell line, Lec 8. A clone stably expressing human SSAO/VAP-1 was isolated and cultured in large scale. Active human SSAO/VAP-1 was purified and recovered using immunoaffinity chromatography. This was used as the source for SSAO/VAP-1 activity. A high-throughput colorimetric assay was developed using either 96 or 384 well format. Briefly, in a standard 96 well plate assay 50 μL of purified human SSAO/VAP-1 (0.25 μg/mL) in 0.1 M sodium phosphate buffer (pH 7.4) was added into each well. Test compounds were dissolved in DMSO and tested in a Concentration Response Curve (CRC) with 4-11 data points, typically in the micromolar or nanomolar range after incubation with human SSAO/VAP-1 for 30 min at 37° C. After 30 min incubation, 50 μL of the reaction mixture containing 600 μM benzylamine (Sigma Aldrich), 120 μM Amplex Red (Sigma Aldrich) and 1.5 U/mL horseradish peroxidase (Sigma Aldrich) prepared in 0.1 M sodium phosphate buffer (pH 7.4) were added to the corresponding well. The fluorescence unit (RFU) was read every 2.5 min for 30 min at 37° C. excitation 565 nm and emission 590 (Optima; BMG labtech). The slope of the kinetics for each well was calculated using MARS data analysis software (BMG labtech) and this value was used to deduce the IC50 value (Dotmatics).

The next test concerns the target Recombinant human MAO-B (Homo sapiens (Human), UniProt P27338). The test is described as follows: Inhibition of human recombinant MAO-B. Particulars: benzylamine 100 μM. As for the experimental part:
Method to Determine the Ability of Compounds of Formula I to Inhibit Human Recombinant MAO-B
The specificity of the compounds of this invention was tested by determining their ability to inhibit MAO-B activities in vitro. Recombinant human MAO-B (0.06 mg/mL; Sigma Aldrich) was used as source of MAO-B enzyme activities. The assay was performed in a similar way as for human SSAO/VAP-1 (Example 66) except, the substrate benzylamine was used at 100 μM.

Structures are written as SMILES. Structures can show the parent of a compound that is named as a salt.

Sequence of Human LOXL2 (Q9Y4K0 26-774): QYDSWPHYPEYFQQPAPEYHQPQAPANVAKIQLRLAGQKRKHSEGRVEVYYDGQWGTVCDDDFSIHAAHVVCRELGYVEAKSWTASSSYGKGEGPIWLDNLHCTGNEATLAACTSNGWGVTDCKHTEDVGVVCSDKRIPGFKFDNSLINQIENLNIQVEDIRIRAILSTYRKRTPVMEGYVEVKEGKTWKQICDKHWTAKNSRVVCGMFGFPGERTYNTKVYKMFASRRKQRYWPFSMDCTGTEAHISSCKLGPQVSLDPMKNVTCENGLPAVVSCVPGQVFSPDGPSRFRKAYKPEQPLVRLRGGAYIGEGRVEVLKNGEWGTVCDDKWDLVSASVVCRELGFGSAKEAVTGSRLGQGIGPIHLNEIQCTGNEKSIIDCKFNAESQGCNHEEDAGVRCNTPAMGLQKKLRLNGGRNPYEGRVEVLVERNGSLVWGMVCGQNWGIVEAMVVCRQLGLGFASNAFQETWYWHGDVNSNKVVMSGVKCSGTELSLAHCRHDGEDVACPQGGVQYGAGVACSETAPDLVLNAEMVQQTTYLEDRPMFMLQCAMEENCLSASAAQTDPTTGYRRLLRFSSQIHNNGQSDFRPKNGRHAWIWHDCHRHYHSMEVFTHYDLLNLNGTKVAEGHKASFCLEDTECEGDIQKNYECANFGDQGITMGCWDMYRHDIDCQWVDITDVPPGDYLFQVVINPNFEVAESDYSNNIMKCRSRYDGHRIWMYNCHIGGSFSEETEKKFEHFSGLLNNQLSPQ
Sequence of Bovine LOX (P33072 170-418): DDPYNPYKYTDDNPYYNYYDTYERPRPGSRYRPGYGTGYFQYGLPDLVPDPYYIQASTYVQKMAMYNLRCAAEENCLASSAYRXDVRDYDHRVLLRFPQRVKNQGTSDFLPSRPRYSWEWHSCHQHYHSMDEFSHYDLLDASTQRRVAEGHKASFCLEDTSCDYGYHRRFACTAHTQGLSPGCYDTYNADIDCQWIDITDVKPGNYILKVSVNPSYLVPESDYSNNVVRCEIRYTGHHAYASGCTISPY
Sequence of human recombinant SSAO/VAP-1 (Q16853 34-763): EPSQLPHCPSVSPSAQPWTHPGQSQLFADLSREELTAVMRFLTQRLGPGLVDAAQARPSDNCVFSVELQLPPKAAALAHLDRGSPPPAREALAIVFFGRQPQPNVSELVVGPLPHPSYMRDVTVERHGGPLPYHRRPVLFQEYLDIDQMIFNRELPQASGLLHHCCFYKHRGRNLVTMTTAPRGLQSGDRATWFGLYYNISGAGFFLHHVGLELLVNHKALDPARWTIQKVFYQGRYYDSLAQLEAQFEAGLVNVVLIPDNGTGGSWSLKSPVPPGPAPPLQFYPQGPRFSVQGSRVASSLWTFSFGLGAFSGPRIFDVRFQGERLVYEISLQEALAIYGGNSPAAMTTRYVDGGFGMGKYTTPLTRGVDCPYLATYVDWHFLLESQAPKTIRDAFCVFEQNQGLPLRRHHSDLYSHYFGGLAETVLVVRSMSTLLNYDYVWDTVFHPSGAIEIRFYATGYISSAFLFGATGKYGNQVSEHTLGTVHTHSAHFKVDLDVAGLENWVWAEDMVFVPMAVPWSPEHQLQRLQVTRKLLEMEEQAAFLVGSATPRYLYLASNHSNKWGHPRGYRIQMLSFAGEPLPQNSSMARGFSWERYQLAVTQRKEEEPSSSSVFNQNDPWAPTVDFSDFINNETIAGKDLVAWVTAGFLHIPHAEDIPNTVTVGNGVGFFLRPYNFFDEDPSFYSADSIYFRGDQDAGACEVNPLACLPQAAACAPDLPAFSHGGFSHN
Sequence of Recombinant human MAO-B (P27338 whole entry): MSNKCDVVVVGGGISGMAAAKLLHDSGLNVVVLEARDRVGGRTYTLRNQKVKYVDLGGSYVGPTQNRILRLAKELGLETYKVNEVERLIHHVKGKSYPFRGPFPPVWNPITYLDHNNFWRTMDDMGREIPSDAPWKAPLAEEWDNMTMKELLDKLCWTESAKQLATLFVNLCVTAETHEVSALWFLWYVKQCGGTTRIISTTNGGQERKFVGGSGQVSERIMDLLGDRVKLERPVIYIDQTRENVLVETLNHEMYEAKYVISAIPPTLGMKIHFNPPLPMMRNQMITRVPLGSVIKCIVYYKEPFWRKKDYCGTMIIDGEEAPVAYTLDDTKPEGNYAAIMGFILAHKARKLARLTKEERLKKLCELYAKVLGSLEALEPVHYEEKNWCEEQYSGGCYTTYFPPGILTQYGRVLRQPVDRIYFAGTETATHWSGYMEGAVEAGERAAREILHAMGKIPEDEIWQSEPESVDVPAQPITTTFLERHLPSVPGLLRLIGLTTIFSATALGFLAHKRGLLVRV

Take `NC/C=C(\F)Cn1cc(-c2ccc(F)cc2)c2ccccc21` [Compound 1, (Z)-3-fluoro-4-(3-(4-fluorophenyl)-1H-indol-1-yl)but-2-en-1-amine]: the IC50 (in general, the concentration that inhibits the measured activity by half) at Human LOXL2 is below 300 nM; against Bovine LOX, above 300 nM; in test [1] it was above 3000 nM; at Recombinant human MAO-B it was above 3000 nM.

As to `Cc1c(-c2cccc(S(=O)(=O)N(C)C)c2)c2ccccc2n1C/C(F)=C/CN` [Compound 2, (Z)-3-(1-(4-amino-2-fluorobut-2-en-1-yl)-2-methyl-1H-indol-3-yl)-N,N-dimethylbenzenesulfonamide], the IC50 at Human LOXL2 is below 300 nM; against Bovine LOX, above 300 nM; in test [1], above 3000 nM; at Recombinant human MAO-B, above 3000 nM.

Consider `Cc1c(-c2ccc(S(=O)(=O)N(C)C)cc2)c2ccccc2n1C/C(F)=C/CN` [Compound 3, (Z)-4-(1-(4-amino-2-fluorobut-2-en-1-yl)-2-methyl-1H-indol-3-yl)-N,N-dimethylbenzenesulfonamide], for which the IC50 was below 300 nM against Human LOXL2, above 300 nM on Bovine LOX, above 3000 nM in test [1] and above 3000 nM on Recombinant human MAO-B.

In the case of `Cc1c(-c2cccc(S(=O)(=O)N(C)C)c2)c2cccnc2n1C/C(F)=C/CN` [Compound 4, (Z)-3-(1-(4-amino-2-fluorobut-2-en-1-yl)-2-methyl-1H-pyrrolo[2,3-b]pyridin-3-yl)-N,N-dimethylbenzenesulfonamide], the IC50 was below 300 nM at Human LOXL2, above 300 nM at Bovine LOX, above 3000 nM in test [1] and above 3000 nM at Recombinant human MAO-B.

Consider `COC(=O)c1ccc2c(c1)c(-c1cccc(S(=O)(=O)N(C)C)c1)c(C)n2C/C(F)=C/CN` [Compound 5, Hydrochloride], for which the IC50 is below 300 nM against Human LOXL2, above 300 nM on Bovine LOX, above 3000 nM in test [1] and above 3000 nM at Recombinant human MAO-B.

Consider `Cc1c(-c2cccc(S(=O)(=O)N(C)C)c2)c2cc(C(=O)N(C)C)ccc2n1C/C(F)=C/CN` [Compound 6, (Z)-1-(4-amino-2-fluorobut-2-en-1-yl)-3-(3-(N,N-dimethylsulfamoyl)phenyl)-N,N,2-trimethyl-1H-indole-5-carboxamide], for which the IC50 was below 300 nM against Human LOXL2, above 300 nM against Bovine LOX, above 3000 nM in test [1] and above 3000 nM at Recombinant human MAO-B.

As for `COC(=O)c1ccc2c(-c3cccc(S(=O)(=O)N(C)C)c3)c(C)n(C/C(F)=C/CN)c2c1` [Compound 7, (Z)-methyl 1-(4-amino-2-fluorobut-2-en-1-yl)-3-(3-(N,N-dimethylsulfamoyl)phenyl)-2-methyl-1H-indole-6-carboxylate], the IC50 is below 300 nM on Human LOXL2, above 300 nM against Bovine LOX, above 3000 nM in test [1] and above 3000 nM at Recombinant human MAO-B.

As for `Cc1c(-c2cccc(S(=O)(=O)N(C)C)c2)c2cc(C(=O)O)ccc2n1C/C(F)=C/CN` [Compound 8, (Z)-1-(4-amino-2-fluorobut-2-en-1-yl)-3-(3-(N,N-dimethylsulfamoyl)phenyl)-2-methyl-1H-indole-5-carboxylic acid], the IC50 is below 300 nM against Human LOXL2, above 300 nM at Bovine LOX, above 3000 nM in test [1] and above 3000 nM at Recombinant human MAO-B.

Take `CCS(=O)(=O)c1cccc(-c2c(C(C)C)n(C/C(F)=C/CN)c3ccc(C)nc23)c1` [Compound 113, (Z)-4-(3-(3-(ethylsulfonyl)phenyl)-2-isopropyl-5-methyl-1H-pyrrolo[3,2-b]pyridin-1-yl)-3-fluorobut-2-en-1-amine Dihydrochloride]: the IC50 on Human LOXL2 is below 300 nM; against Bovine LOX, above 300 nM.

As for `CCS(=O)(=O)c1cccc(-c2c(C)n(C/C(F)=C/CN)c3ccc(C)nc23)c1` [Compound 114, (Z)-4-(3-(3-(ethylsulfonyl)phenyl)-2,5-dimethyl-1H-pyrrolo[3,2-b]pyridin-1-yl)-3-fluorobut-2-en-1-amine Dihydrochloride], the results for the IC50 against Human LOXL2 and at Bovine LOX were below 300 nM and above 300 nM, respectively.

Regarding `Cc1c(-c2cccc(S(C)(=O)=O)c2)c2nc(CF)ccc2n1C/C(F)=C/CN` [Compound 115, (Z)-3-fluoro-4-(5-(fluoromethyl)-2-methyl-3-(3-(methylsulfonyl)phenyl)-1H-pyrrolo[3,2-b]pyridin-1-yl)but-2-en-1-amine Dihydrochloride], the IC50 on Human LOXL2 is below 300 nM; against Bovine LOX it was above 300 nM.

Consider `Cc1c(-c2cccc(S(C)(=O)=O)c2)c2nc(C(C)(C)O)ccc2n1C/C(F)=C/CN` [Compound 116, (Z)-2-(1-(4-amino-2-fluorobut-2-en-1-yl)-2-methyl-3-(3-(methylsulfonyl)phenyl)-1H-pyrrolo[3,2-b]pyridin-5-yl)propan-2-ol Dihydrochloride], for which the IC50 on Human LOXL2 was below 300 nM; on Bovine LOX it was above 300 nM.

On to `Cc1c(-c2cccc(S(=O)(=O)C(C)C)c2)c2nc(C(C)(C)O)ccc2n1C/C(F)=C/CN` [Compound 117, (Z)-2-(1-(4-amino-2-fluorobut-2-en-1-yl)-3-(3-(isopropylsulfonyl)phenyl)-2-methyl-1H-pyrrolo[3,2-b]pyridin-5-yl)propan-2-ol Dihydrochloride], for which the IC50 against Human LOXL2 is below 300 nM; at Bovine LOX, above 300 nM.

For the origin of these results see US10717733B2, “Haloallylamine indole and azaindole derivative inhibitors of lysyl oxidases and uses thereof” (PHARMAXIS LTD., priority 2016, dated 2020).
